Assay results published in patent US7868012B2, “Sulfamides as endothelin receptor antagonists for the treatment of cardiovascular diseases” (Actelion Pharmaceuticals, Ltd., priority 2004, dated 2011).
pIC50: −log10 of the molar value.

How the values were obtained:
[1] = biological target: T1, human recombinant ETA receptors (Homo sapiens, UniProt P25101); assay: Inhibition of [125I]ET-1 binding to membranes from CHO cells carrying human ETA receptors
T1 construct: expressed in transfected cells; host or cells: CHO cells (microsomal membranes)
T1 sequence (P25101 21-427): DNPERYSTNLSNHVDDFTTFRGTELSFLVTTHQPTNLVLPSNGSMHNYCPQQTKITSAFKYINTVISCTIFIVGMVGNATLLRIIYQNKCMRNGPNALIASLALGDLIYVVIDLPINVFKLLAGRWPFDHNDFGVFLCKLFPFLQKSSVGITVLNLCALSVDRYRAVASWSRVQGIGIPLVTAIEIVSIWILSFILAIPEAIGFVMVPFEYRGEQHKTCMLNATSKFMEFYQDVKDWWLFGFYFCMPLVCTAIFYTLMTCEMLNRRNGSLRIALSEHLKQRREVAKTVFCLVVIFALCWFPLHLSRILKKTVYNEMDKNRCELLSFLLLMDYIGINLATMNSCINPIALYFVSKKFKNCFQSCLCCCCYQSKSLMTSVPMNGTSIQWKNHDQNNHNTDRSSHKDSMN

[2] = biological target: T2, human recombinant ETB receptors (Homo sapiens, UniProt P24530); assay: Inhibition of [125I]ET-1 binding to membranes from CHO cells carrying human ETB receptors; also: 2.5% DMSO
T2 construct: expressed in transfected cells; host or cells: CHO cells (microsomal membranes)
T2 sequence (P24530 27-442): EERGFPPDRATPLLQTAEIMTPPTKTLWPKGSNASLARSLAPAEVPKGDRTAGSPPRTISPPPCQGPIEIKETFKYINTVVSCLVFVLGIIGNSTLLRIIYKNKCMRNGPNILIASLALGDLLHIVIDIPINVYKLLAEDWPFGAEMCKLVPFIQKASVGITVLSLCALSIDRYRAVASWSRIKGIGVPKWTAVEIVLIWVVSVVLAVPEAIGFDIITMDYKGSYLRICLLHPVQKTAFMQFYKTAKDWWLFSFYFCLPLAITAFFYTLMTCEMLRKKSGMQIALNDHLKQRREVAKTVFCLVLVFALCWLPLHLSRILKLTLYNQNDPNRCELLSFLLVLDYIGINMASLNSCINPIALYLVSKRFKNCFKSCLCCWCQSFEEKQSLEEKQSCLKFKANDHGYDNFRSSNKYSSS
Experimental: 1) Inhibition of Endothelin Binding to Membranes from CHO Cells Carrying Human ET Receptors:
For competition binding studies, membranes of CHO cells expressing human recombinant ETA or ETB receptors were used. Microsomal membranes from recombinant CHO cells were prepared and the binding assay made as previously described (Breu V., et al, FEBS Lett 1993; 334:210).
The assay is performed in 200 uL 50 mM Tris/HCl buffer, pH 7.4, including 25 mM MnCl2, 1 mM EDTA and 0.5% (w/v) BSA in polypropylene microtiter plates. […]. […] After 2 h, the membranes were filtered on filterplates containing GF/C filters (Unifilterplates from Canberra Packard S. A. Zürich, Switzerland). To each well, 50 uL of scintillation cocktail is added (MicroScint 20, Canberra Packard S. A. Zürich, Switzerland) and the filter plates counted in a microplate counter (TopCount, Canberra Packard S. A. Zürich, Switzerland).
All the test compounds were dissolved, diluted and added in DMSO. […] […].

[3] = biological target: T3, ETA receptors (rat aortic rings) (Rattus norvegicus, UniProt P26684); assay: Inhibition of endothelin-1-induced contraction of isolated rat aortic rings; format: cell-based; conditions: read-out: pA2 value Aorta (converted)
T3 construct: The thoracic aorta or trachea were excised, dissected and cut in 3-5 mm rings; from tissue; host or cells: thoracic aorta rings of adult Wistar rats, endothelium removed
T3 sequence (P26684 21-426): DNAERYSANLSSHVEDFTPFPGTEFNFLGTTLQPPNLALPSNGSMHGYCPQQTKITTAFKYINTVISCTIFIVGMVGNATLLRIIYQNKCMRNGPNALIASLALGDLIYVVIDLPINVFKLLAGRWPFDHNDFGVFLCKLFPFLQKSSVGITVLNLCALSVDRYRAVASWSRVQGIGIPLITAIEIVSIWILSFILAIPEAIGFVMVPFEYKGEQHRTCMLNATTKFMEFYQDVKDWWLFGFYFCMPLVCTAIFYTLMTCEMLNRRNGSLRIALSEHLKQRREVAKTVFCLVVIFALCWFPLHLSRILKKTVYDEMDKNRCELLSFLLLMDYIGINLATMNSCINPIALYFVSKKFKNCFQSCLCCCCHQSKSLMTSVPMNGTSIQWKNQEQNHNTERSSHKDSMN
Experimental: (§1) 2) Inhibition of Endothelin-Induced Contractions on Isolated Rat Aortic Rings (ETA Receptors) and Rat Tracheal Rings (ETB Receptors):
(§2) The functional inhibitory potency of the endothelin antagonists was assessed by their inhibition of the contraction induced by endothelin-1 on rat aortic rings (ETA receptors) and of the contraction induced by sarafotoxin S6c on rat tracheal rings (ETB receptors). Adult Wistar rats were anesthetized and exsanguinated. The thoracic aorta or trachea were excised, dissected and cut in 3-5 mm rings. The endothelium/epithelium was removed by gentle rubbing of the intimal surface. Each ring was suspended in a 10 mL isolated organ bath filled with Krebs-Henseleit solution (in mM; NaCl 115, KCl 4.7, MgSO4 1.2, KH2PO4 1.5, NaHCO3 25, CaCl2 2.5, glucose 10) kept at 37° C. and gassed with 95% O2 and 5% CO2. The rings were connected to force transducers and isometric tension was recorded (EMKA Technologies SA, Paris, France). The rings were stretched to a resting tension of 3 g (aorta) or 2 g (trachea). […] The functional inhibitory potency of the test compound was assessed by calculating the concentration ratio, i.e. the shift to the right of the EC50 induced by different concentrations of test compound. […]

[4] = biological target: T4, ETB receptors (rat tracheal rings) (Rattus norvegicus, UniProt P21451); assay: Inhibition of sarafotoxin S6c-induced contraction of isolated rat tracheal rings; format: cell-based; conditions: contraction induced by sarafotoxin S6c, 10 min incubation, read-out: pA2 value Trachea (converted)
T4 construct: The thoracic aorta or trachea were excised, dissected and cut in 3-5 mm rings; from tissue; host or cells: tracheal rings of adult Wistar rats, epithelium removed
T4 sequence (P21451 27-442): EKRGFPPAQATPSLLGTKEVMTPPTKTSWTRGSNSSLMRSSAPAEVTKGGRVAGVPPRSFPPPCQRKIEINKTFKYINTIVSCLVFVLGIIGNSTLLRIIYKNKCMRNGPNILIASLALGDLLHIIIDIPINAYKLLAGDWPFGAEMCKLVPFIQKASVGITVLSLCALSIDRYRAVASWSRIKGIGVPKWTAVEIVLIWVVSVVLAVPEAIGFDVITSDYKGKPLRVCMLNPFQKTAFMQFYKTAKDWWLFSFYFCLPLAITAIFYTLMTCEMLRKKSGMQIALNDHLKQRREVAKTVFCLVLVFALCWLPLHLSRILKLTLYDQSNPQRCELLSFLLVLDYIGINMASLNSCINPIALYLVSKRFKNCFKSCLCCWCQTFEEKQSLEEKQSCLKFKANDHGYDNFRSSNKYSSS
Experimental: as §1, §2

Row | SMILES | pIC50 [1] | pIC50 [2] | Kb [3] | Kb [4]
1 | O=C(O)CCNS(=O)(=O)Nc1ncnc(OCCOc2ncc(Br)cn2)c1-c1ccc(Br)cc1 [Example 2] | 9.18 | 6.48 | 6.31 nM | 794 nM
2 | O=S(=O)(NCCCO)Nc1ncnc(OCCOc2ncc(Br)cn2)c1-c1ccc(Br)cc1 [Example 1, 1-hydroxypropanesulfamic acid[6-(2-(5-bromopyrimid-2-yloxy)-ethoxy)-5-(4-bromophenyl)-pyrimidin-4-yl]-amide] | 9.22 | 6.49 | 100 nM | 3160 nM
